23 molecules from patent US20050267133A1, “Pyrazolopyrimidines as kinase inhibitors” (priority 2002, published 2005) can be followed below.

The target in experiment [1] is T1, GST-TIE2 (intracellular domains of human TIE2) (Homo sapiens, UniProt Q02763).
T1 construct: made in house
Briefly: TIE-2 Enzyme Assay (TIE2-E), LANCE method. It is filed as biochemical. The conditions noted are these: preactivated GST-TIE2, 1 μM D1-15 peptide, 80 uM ATP, 30 mins at room temperature; pIC50 = -log IC50 in Molar. The text has this: The TIE-2 enzyme assay used the LANCE method (Wallac) and GST-TIE2, baculovirus expressed recombinant constructs of the intracellular domains of human TIE2 (amino acids 762-1104, GenBank Accession # L06139) tagged by GST). The method measured the ability of the purified enzymes to catalyse the transfer of the γ-phosphate from ATP onto tyrosine residues in a biotinylated synthetic peptide, D1-15 (biotin-C6-LEARLVAYEGWVAGKKKamide). This peptide phosphorylation was detected using the following procedure: for enzyme preactivation, GST-TIE2 was incubated for 30 mins at room temperature with 2 mM ATP, 5 mM MgCl2 and 12.5 mM DTT in 22.5 mM HEPES buffer (pH7.4). Preactivated GST-TIE2 was incubated for 30 mins at room temperature in 96 well plates with 1 μM D1-15 peptide, 80 uM ATP, 10 mM MgCl2, 0.1 mg/ml BSA and the test compound (diluted from a 10 mM stock in DMSO, final DMSO concentration was 2.4%) in 1 mM HEPES (pH7.4). The reaction was stopped by the addition of EDTA (final concentration 45 mM). Streptavidin linked-APC (allophycocyanin, Molecular Probe) and Europium-labeled anti-phosphorylated tyrosine antibody (Wallac) were then added at the final concentration of 17 μg/well and 2.1 μg/well, respectively. The APC signal was measured using an ARVO multilabel counter. (Wallac Berthold Japan). The percent inhibition of activity was calculated relative to blank control wells.
The concentration of test compound that inhibits 50% of activity (IC50) was interpolated using nonlinear regression (Levernberg-Marquardt) and the equation, y=Vmax (1−x/(K+x))+Y2, where “K” was equal to the IC50. The IC50 values were converted to pIC50 values, i.e., −log IC50 in Molar concentration.
Test compounds are employed in free or salt form.

In experiment [2] the target is GSK-3β (Homo sapiens, UniProt P49841). Briefly: GSK3 scintillation proximity assay (SPA) kinase assay. Format: biochemical. The following applies: 20 nM kinase, 2.5 uM ATP, biotinylated glycogen synthase peptide, 40 minutes at room temperature; -log IC50 in Molar; read-out: GSK-3 pIC50 (converted). An excerpt:
The phosphorylated biotinylated peptide is then captured onto streptavidin coated scintillation proximity assay (SPA) beads from Amersham Technology, where the signal from the ^33P is amplified via the scintillant contained in the beads.
GSK-3β is commercially available or may be cloned and expressed in E. coli using standard techniques to produce soluble, active protein. The production of active protein involves purification in two steps using Metal Chelate and Ion Exchange Chromatography. Protein eluting from Ion Exchange provides >90% pure product that may then be concentrated for use in high throughput screening.
The kinase was assayed at a concentration of 20 nM final in 100 mM HEPES, pH 7.2 containing 10 mM magnesium chloride, 0.1 mg/mL bovine serum albumin, 1 mM dithiothreitol, 0.3 mg/mL heparin, 2.8 uM peptide substrate, 2.5 uM ATP, and 0.2 uCi/well [[…]-^33P]-ATP. After 40 minutes incubation at room temperature, the reaction was stopped by addition of 100 mM EDTA and […] in 100 mM HEPES, pH7.2 followed by an additional solution of diluted Streptavidin coated SPA beads in PBS, pH 7.2 to give a final concentration of 0.25 mg of beads per assay well in a 96-well microtiter plate.
10 mM stock solutions of the compounds of the invention in 100% DMSO are generated as a first step in the screening process. The second step involves the creation of dose response plates where these compounds are diluted 10-fold in 100% DMSO to 1 mM concentrations and subsequently serially diluted 3-fold in 100% DMSO across the plate by automated liquid handling such that the final top concentration of inhibitor is 0.033 mM in the 30 uL kinase assay. The third step involves the creation of the assay plates. This is achieved by transferring 1 uL of the compounds to assay plates by automated liquid handling. The fourth step is to perform the assay as described and count the resulting plates in the Packard TopCount NXT microplate scintillation and luminescence counter.
The final step is data acquisition and analysis where IC50 values are generated for each compound by normalizing curve data to the equation 100*(U1−C2)/(C1−C2) (where U1 is the cpm value, C2 is the background, and C1 is the maximum number of counts), then fitting the normalized data to the equation y=Vmax*(1−(x/(K+x))). The IC50 values were converted to pIC50 values, i.e., −log IC50 in Molar concentration. The data is expressed below in Table 1.

Structures are written as SMILES. pIC50: −log10 of the molar value.

T1 sequence (Q02763 762-1104): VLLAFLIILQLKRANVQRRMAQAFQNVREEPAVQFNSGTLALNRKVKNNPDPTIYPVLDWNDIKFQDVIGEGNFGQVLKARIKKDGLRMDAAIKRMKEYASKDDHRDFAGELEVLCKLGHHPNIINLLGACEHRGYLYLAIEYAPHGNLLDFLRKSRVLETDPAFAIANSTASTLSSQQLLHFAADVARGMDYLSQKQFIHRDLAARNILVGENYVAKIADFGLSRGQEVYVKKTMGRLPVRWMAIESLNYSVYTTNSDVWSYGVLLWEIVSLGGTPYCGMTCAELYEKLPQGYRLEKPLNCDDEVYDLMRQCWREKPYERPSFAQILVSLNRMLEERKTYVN
Sequence of GSK-3β (P49841 whole entry, species assumed): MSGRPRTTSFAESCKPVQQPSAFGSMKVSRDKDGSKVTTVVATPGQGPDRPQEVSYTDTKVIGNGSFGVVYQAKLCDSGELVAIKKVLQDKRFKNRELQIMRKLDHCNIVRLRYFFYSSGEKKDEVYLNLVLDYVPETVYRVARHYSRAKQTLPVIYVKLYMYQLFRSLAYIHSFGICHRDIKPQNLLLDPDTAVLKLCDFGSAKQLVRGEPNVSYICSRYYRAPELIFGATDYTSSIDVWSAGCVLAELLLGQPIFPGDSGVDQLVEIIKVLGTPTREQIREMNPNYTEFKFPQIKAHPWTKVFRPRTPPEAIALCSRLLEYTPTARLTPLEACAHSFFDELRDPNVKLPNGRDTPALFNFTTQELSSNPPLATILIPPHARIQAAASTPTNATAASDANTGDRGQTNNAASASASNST

As for `C(=N\Nc1ncnc2c1cnn2-c1ccccc1)/c1ccncc1` [Example 1, Isonicotinaldehyde (1-phenyl-1H-pyrazolo[3,4-d]pyrimidin-4-yl)hydrazone], the pIC50 in experiment [1] is 6.00 to 7.00. The IC50 in experiment [2] is 100 to 1000 nM.

As for `C(=NNc1ncnc2c1cnn2-c1ccccc1)c1cccnc1` [Example 2, Nicotinaldehyde (1-phenyl-1H-pyrazolo[3,4-d]pyrimidin-4-yl)hydrazone], in experiment [1], the negative-log IC50 (pIC50) is 5.00 to 6.00. Further, the IC50 in experiment [2] is below 100 nM.

In experiment [1], `OCCOc1cccc(/C=N/Nc2ncnc3c2cnn3-c2ccccc2)c1` [Example 5, 3-(2-Hydroxyethoxy)benzaldehyde (1-phenyl-1H-pyrazolo[3,4-d]pyrimidin-4-yl)hydrazone] gave a negative logarithm of the IC50 (pIC50) of 6.00 to 7.00. For the same molecule, the IC50 in experiment [2] is below 100 nM.

In the case of `Oc1cccc(/C=N/Nc2ncnc3c2cnn3-c2ccccc2)c1` [Example 6, 3-Hydroxybenzaldehyde (1-phenyl-1H-pyrazolo[3,4-d]pyrimidin-4-yl)hydrazone], the pIC50 in experiment [1] was 5.00 to 6.00. Moreover, in experiment [2], the IC50 was 100 to 1000 nM.

In turn, `COc1cc(/C=N/Nc2ncnc3c2cnn3-c2ccccc2)cc(O)c1OC` [Example 7, 3-Hydroxy-4,5-dimethoxybenzaldehyde (1-phenyl-1H-pyrazolo[3,4-d]pyrimidin-4-yl)hydrazone] gave a pIC50 in experiment [1] of 6.00 to 7.00. Besides, in experiment [2], the IC50 is below 100 nM.

In experiment [1], `NS(=O)(=O)c1ccc(/C=N/Nc2ncnc3c2cnn3-c2ccccc2)cc1` [Example 20, 4-{(E)-[(1-phenyl-1H-pyrazolo[3,4-d]pyrimidin-4-yl)hydrazonol]methyl}benzenesulfonamide] showed a pIC50 of 6.00 to 7.00. The IC50 in experiment [2] was below 100 nM.

For `O=C(O)c1ccc(/C=N/Nc2ncnc3c2cnn3-c2ccccc2)cc1` [Example 24, 4-{(E)-[(1-phenyl-1H-pyrazolo[3,4-d]pyrimidin-4-yl)hydrazono]methyl}benzoic Acid], the negative-log IC50 (pIC50) in experiment [1] was 6.00 to 7.00. The IC50 in experiment [2] is 100 to 1000 nM.

In the case of `CN(C)CCNC(=O)c1ccc(/C=N/Nc2ncnc3c2cnn3-c2ccccc2)cc1` [Example 25, N-[2-(dimethylamino)ethyl]-4-{(E)-[(1-phenyl-1H-pyrazolo[3,4-d]pyrimidin-4-yl)hydrazono]methyl}benzamide], the pIC50 in experiment [1] was 6.00 to 7.00. In addition, the IC50 in experiment [2] was below 100 nM.

For the molecule `O=C(NCCCN1CCCC1)c1ccc(/C=N/Nc2ncnc3c2cnn3-c2ccccc2)cc1` [Example 26, 4-{(E)-[(1-phenyl-1H-pyrazolo[3,4-d]pyrimidin-4-yl)hydrazono]methyl}-N-(3-pyrrolidin-1-ylpropyl)benzamide], in experiment [1], the negative logarithm of the IC50 (pIC50) was 6.00 to 7.00. In experiment [2], the IC50 was below 100 nM.

Consider `O=C(NCCCN1CCOCC1)c1ccc(/C=N/Nc2ncnc3c2cnn3-c2ccccc2)cc1` [Example 27], for which, in experiment [1], the pIC50 was 6.00 to 7.00. The IC50 in experiment [2] is below 100 nM.

`O=C(NCCc1c[nH]cn1)c1ccc(/C=N/Nc2ncnc3c2cnn3-c2ccccc2)cc1` [Example 29, N[2-(1H-imidazol-4-yl)ethyl]-4-{(E)-[(1-phenyl-1H-pyrazolo[3,4-d]pyrimidin-4-yl)hydrazono]methyl}benzamide] had a negative logarithm of the IC50 (pIC50) in experiment [1] of 6.00 to 7.00. In addition, in experiment [2], the IC50 was 100 to 1000 nM.

`CN(CCc1ccccn1)C(=O)c1ccc(/C=N/Nc2ncnc3c2cnn3-c2ccccc2)cc1` [Example 30, N-Methyl-4-{(E)-[(1-phenyl-1H-pyrazolo[3,4-d]pyrimidin-4-yl)hydrazono]methyl}-N-(2-pyridin-2-ylethyl)benzamide] showed a pIC50 in experiment [1] of 6.00 to 7.00. Further, the IC50 in experiment [2] was 100 to 1000 nM.

In turn, `NCCNC(=O)c1ccc(/C=N/Nc2ncnc3c2cnn3-c2ccccc2)cc1` [Example 31, N-(2-Aminoethyl)-4-{(E)-[(1-phenyl-1H-pyrazolo[3,4-d]pyrimidin-4-yl)hydrazono]methyl}benzamide] gave a pIC50 in experiment [1] of 5.00 to 6.00. The IC50 in experiment [2] was 100 to 1000 nM.

Turning to `NCCCNC(=O)c1ccc(/C=N/Nc2ncnc3c2cnn3-c2ccccc2)cc1` [Example 32, N-(3-aminopropyl)-4-{(E)-[(1-phenyl-1H-pyrazolo[3,4-d]pyrimidin-4-yl)hydrazono]methyl}benzamide], in experiment [1], the negative-log IC50 (pIC50) was 6.00 to 7.00. Moreover, the IC50 in experiment [2] is 100 to 1000 nM.

In experiment [1], `O=C(NCCN1CCCCC1)c1ccc(/C=N/Nc2ncnc3c2cnn3-c2ccccc2)cc1` [Example 33, 4-{(E)-[(1-phenyl-1H-pyrazolo[3,4-d]pyrimidin-4-yl)hydrazono]methyl}-N-(2-piperidin-1-ylethyl)benzamide] showed a negative-log IC50 (pIC50) of 6.00 to 7.00. In experiment [2], the IC50 is below 100 nM.

Molecule `O=C(NCCN1CCCC1)c1ccc(/C=N/Nc2ncnc3c2cnn3-c2ccccc2)cc1` [Example 34, 4-{(E)-[(1-phenyl-1H-pyrazolo[3,4-d]pyrimidin-4-yl)hydrazono]methyl}-N-(2-pyrrolidin-1-ylethyl)benzamide] showed a negative-log IC50 (pIC50) in experiment [1] of 6.00 to 7.00. Also, in experiment [2], the IC50 is 100 to 1000 nM.

The molecule `CN(C)CCN1CCN(C(=O)c2ccc(/C=N/Nc3ncnc4c3cnn4-c3ccccc3)cc2)CC1` [Example 35, 4-({4-[2-(Dimethylamino)ethyl]piperazin-1-yl}carbonyl)benzaldehyde (1-phenyl-1H-pyrazolo[3,4-d]pyrimidin-4-yl)hydrazone] gave a pIC50 in experiment [1] of 6.00 to 7.00. For the same molecule, the IC50 in experiment [2] is 100 to 1000 nM.

For `COCCN1CCN(C(=O)c2ccc(/C=N/Nc3ncnc4c3cnn4-c3ccccc3)cc2)CC1` [Example 36, 4-{[4-(2-methoxyethyl)piperazin-1-yl]carbonyl}benzaldehyde (1-phenyl-1H-pyrazolo[3,4-d]pyrimidin-4-yl)hydrazone], the negative-log IC50 (pIC50) in experiment [1] was 6.00 to 7.00. Moreover, the IC50 in experiment [2] is 100 to 1000 nM.

The molecule `CN1CCN(CCCNC(=O)c2ccc(/C=N/Nc3ncnc4c3cnn4-c3ccccc3)cc2)CC1` [Example 37, N[3-(4-Methylpiperazin-1-yl)propyl]-4-{(E)-[(1-phenyl-1H-pyrazolo[3,4-d]pyrimidin-4-yl)hydrazono]methyl}benzamide] showed a pIC50 in experiment [1] of 6.00 to 7.00. The IC50 in experiment [2] was 100 to 1000 nM.

For `CS(=O)(=O)CCNC(=O)c1ccc(/C=N/Nc2ncnc3c2cnn3-c2ccccc2)cc1` [Example 38, N-[2-(Methylsulfonyl)ethyl]-4-{(E)-[(1-phenyl-1H-pyrazolo[3,4-d]pyrimidin-4-yl)hydrazono]methyl}benzamide], the pIC50 in experiment [1] was 6.00 to 7.00. The IC50 in experiment [2] was below 100 nM.

On to `O=C(O)c1cccc(/C=N/Nc2ncnc3c2cnn3-c2ccccc2)c1` [Example 39, 3-{(E)-[(1-phenyl-1H-pyrazolo[3,4-d]pyrimidin-4-yl)hydrazono]methyl}benzoic Acid], for which, in experiment [1], the pIC50 was 5.00 to 6.00. In addition, the IC50 in experiment [2] was 1000 to 10000 nM.

As for `COc1cc(/C=N/Nc2ncnc3c2cnn3-c2ccccc2)ccc1O` [Example 43, 4-Hydroxy-3-methoxybenzaldehyde (1-phenyl-1H-pyrazolo[3,4-d]pyrimidin-4-yl)hydrazone], the negative-log IC50 (pIC50) in experiment [1] was 6.00 to 7.00. Also, the IC50 in experiment [2] was below 100 nM.

`OCc1cc(/C=N/Nc2ncnc3c2cnn3-c2ccccc2)ccc1O` [Example 44, 4-Hydroxy-3-hydroxymethylbenzaldehyde (1-phenyl-1H-pyrazolo[3,4-d]pyrimidin-4-yl)hydrazone] showed a pIC50 in experiment [1] of 6.00 to 7.00. For the same molecule, the IC50 in experiment [2] was 100 to 1000 nM.
